We go through three compounds from patent publication US11352396B2, “Antimicrobial peptides and methods of using same” (Zoetis Services LLC, priority 2017, dated 2022).

Data set [1] deals with MRSP (Methicillin-Resistant Staphylococcus pseudintermedius). Put plainly: MIC against selected strains of MRSP. The settings on record: for MR 71994: MRSP strain 71994, Table 6; for MR 72035: MRSP strain 72035, Table 6; for MR 72192: MRSP strain 72192, Table 6; for MR 76923: MRSP strain 76923, Table 6; for MR 79882: MRSP strain 79882, Table 6; for MR 80279: MRSP strain 80279, Table 6; for MR 81926: MRSP strain 81926, Table 6; for MR 86002: MRSP strain 86002, Table 6; for MR 87665: MRSP strain 87665, Table 6; for Mr 88493: MRSP strain 88493, Table 6. The data set is classed as cell-based. Set-up: key to MIC MRSP 72192 / MIC MRSP 76923 / MR 71994 / Mr 88493 / MR 72035 / MR 72192 / MR 76923 / MR 79882 / MR 80279 / MR 81926 / MR 86002 / MR 87665: MIC in μM (visual, first well with no growth). The essentials:
(§1)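 Broth microdilution MIC following CLSI VET01-S2: peptides titrated 50 μM to 0.05 μM in assay, inoculum a 0.5 McFarland suspension diluted 1:250 in Mueller-Hinton broth. Incubated overnight (18–20 h); MIC taken visually as lowest concentration without visible growth.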

Another data set deals with cRBC. In kind it is cell-based, canine. The essentials:
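Washed, plasma-free red cells were incubated with peptide titrated from 50 µM to 0.05 µM for 1 h at 37 °C. Hemolysis was read as OD at 405 nm, scaled between phosphate buffer alone (0%) and 1% Triton X-100 (100%).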

Data set [2] relates to Canine-derived epithelial keratinocyte (CPEK) cells. In kind it is cell-based. In short, it runs like this:
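CPEK cells were dosed with peptides at 50 μM to 0.05 μM and incubated overnight at 37 °C, 5% CO2. Viability was read by CellTiter-Glo luminescence. Percent effect was normalised to 0.1% Triton X-100 (high) and phosphate buffer alone (zero).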

In data set [3] the test system is MSSP (Methicillin-Susceptible Staphylococcus pseudintermedius). Put plainly: MIC against selected strains of MSSP. The data set is classed as cell-based. Set-up: MIC MSSP 49051 / MIC MSSP 81923 / MIC MSSP 84250 / Effect on MSSP 86000 / Effect on MSSP 72036 / Effect on MSSP 78032: unit not given beside the values; Effect on MSSP 71990 / Effect on MSSP 86001 / Effect on MSSP 72191 / Effect on MSSP 76986 / Effect on MSSP 77378 / Effect on MSSP 81923 / Effect on MSSP 84250 / Effect on MSSP 84658: unit: µM. The settings on record: for SP 49051: S. pseudintermedius 49051, Table 6; for Effect on MSSP 71990: strain 71990, Table 5; for Effect on MSSP 72036: strain 72036, Table 5; for Effect on MSSP 72191: strain 72191, Table 5; for Effect on MSSP 76986: strain 76986, Table 5; for Effect on MSSP 77378: strain 77378, Table 5; for Effect on MSSP 78032: strain 78032, Table 5; for Effect on MSSP 81923: strain 81923, Table 5; for Effect on MSSP 84250: strain 84250, Table 5; for Effect on MSSP 84658: strain 84658, Table 5; for Effect on MSSP 86000: strain 86000, Table 5; for Effect on MSSP 86001: strain 86001, Table 5. The essentials: as §1

In another data set the test system is E. coli ATCC 25922. The data set is classed as cell-based. The note with it: E. coli 25922, Table 6. In short, it runs like this: (§2)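 Broth microdilution followed CLSI VET01-S2, with peptides serially diluted to in-assay concentrations of 50 μM to 0.05 μM. A 0.5 McFarland inoculum diluted 1:250 in Mueller-Hinton Broth was incubated with peptide for 18-20 hours. MIC was read visually as the first well without visible growth.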

In another data set the test system is S. aureus ATCC 29213. The data set is classed as cell-based. Set-up: key to SA 29213: MIC in μM (lowest conc. with no visible growth). The settings on record: S. aureus 29213, Table 6. In short, it runs like this: as §2
The test system of a further data set is beagle red blood cells. Nature of the data set: Red blood cell hemolysis assay, beagle. In kind it is cell-based. The settings on record: compared with SEQ ID NO: 13 (tachyplesin), FIG. 1. Here is the method: (§3) SEQ ID NO: 1 was selected for further research. Toxicity of SEQ ID NO: 1 to eukaryotic blood cells was compared to that of tachyplesin (SEQ ID NO: 13). A standard, well referenced red blood cell hemolysis assay was employed against multiple species to test the lysis potential of the peptides. Red blood cells (RBCs) were prepared and isolated by several centrifuge and wash steps to remove the plasma fraction. A dose titration (50 μM to 0.05 μM) of test peptides and control peptide melittin were spotted from 50 mM stocks in a 384 well plate. Prepared RBCs were incubated with peptide for one hour at 37° C. Percent hemolysis was measured by optical density at 405 nm and utilizing 1% TritonX100 as hundred percent effect (HPE) and phosphate buffer alone as zero percent effect (ZPE).

The test system of another data set is human red blood cells. Nature of the data set: Red blood cell hemolysis assay, human. In kind it is cell-based. The settings on record: compared with SEQ ID NO: 13 (tachyplesin), FIG. 1. The method, then: as §3
For another data set, the system named is bovine red blood cells. Put plainly: Red blood cell hemolysis assay, bovine. The data set is classed as cell-based. The settings on record: compared with SEQ ID NO: 13 (tachyplesin). The method, then:
as §3

Another data set concerns rat red blood cells. Nature of the data set: Red blood cell hemolysis assay, rat. The data set is classed as cell-based. The settings on record: compared with SEQ ID NO: 13 (tachyplesin), FIG. 1. Here is the method:
as §3

The subject of another data set is mouse red blood cells. Nature of the data set: Red blood cell hemolysis assay, mouse. The note with it: compared with SEQ ID NO: 13 (tachyplesin). In kind it is cell-based. Here is the method:
as §3

Residues, ends and D or L forms follow the SMILES beside them.

As to “116 (KWCFYVCYRGICYRRCND; Artificial Antimicrobial peptide) [compound 116]”, in [1], the “MR 71994” value was 1.6, the “MR 72035” value is recorded as 1.6, the “MR 72192” value is 1.6 and the “MR 76923” value is given as 1.6. In [1], the “MR 79882” value worked out at 1.6, the “MR 80279” value amounted to 1.6, the “MR 81926” value was 1.6 and the “MR 86002” value is listed as 3.1. For the same compound, in [1], the “MR 87665” value is given as 1.6 and the “Mr 88493” value was found to be 1.6. The “cRBC (50 μM)” value in the data set with cRBC worked out at 87.0. In addition, the “CPEK (50 μM)” value in data set [2] turned out to be 16.0. Besides, in data set [3], the “SP 49051” value is 1.6, the “Effect on MSSP 71990” value is 1.6, the “Effect on MSSP 72036” value is listed as 1.6 and the “Effect on MSSP 72191” value was 1.6. In addition, in data set [3], the “Effect on MSSP 76986” value is 1.6, the “Effect on MSSP 77378” value turned out to be 1.6, the “Effect on MSSP 78032” value is reported as 1.6 and the “Effect on MSSP 81923” value turned out to be 1.6. In addition, in data set [3], the “Effect on MSSP 84250” value came to 1.6, the “Effect on MSSP 84658” value is 1.6, the “Effect on MSSP 86000” value is reported as 1.6 and the “Effect on MSSP 86001” value stood at 1.6. For the same compound, the EC 25922 with E. coli ATCC 25922 was 0.8 µM. Also, in the data set on S. aureus ATCC 29213, the “SA 29213” value came out at 6.2.

For “117 (GWCFYVCYRGICYRRCRD; Artificial Antimicrobial peptide) [compound 117]”, in data set [1], the “MR 71994” value turned out to be 1.6, the “MR 72035” value turned out to be 1.6, the “MR 72192” value is 0.8 and the “MR 76923” value stood at 1.6. Moreover, in [1], the “MR 79882” value was 0.8, the “MR 80279” value is recorded as 1.6, the “MR 81926” value was 1.6 and the “MR 86002” value is 0.8. In [1], the “MR 87665” value stood at 1.6 and the “Mr 88493” value was found to be 1.6. In addition, the “cRBC (50 μM)” value in the data set on cRBC amounted to 97.8. In addition, the “CPEK (50 μM)” value in data set [2] was found to be 14.7. Moreover, in [3], the “SP 49051” value was found to be 1.6, the “Effect on MSSP 71990” value stood at 1.6, the “Effect on MSSP 72036” value amounted to 1.6 and the “Effect on MSSP 72191” value turned out to be 1.6. For the same compound, in data set [3], the “Effect on MSSP 76986” value worked out at 0.8, the “Effect on MSSP 77378” value came to 0.8, the “Effect on MSSP 78032” value is on record as 1.6 and the “Effect on MSSP 81923” value is 1.6. Further, in [3], the “Effect on MSSP 84250” value came out at 1.6, the “Effect on MSSP 84658” value is recorded as 1.6, the “Effect on MSSP 86000” value amounted to 1.6 and the “Effect on MSSP 86001” value turned out to be 1.6. The same compound came in with an EC 25922 in the data set with E. coli ATCC 25922 of 0.8 µM. Further, in the data set on S. aureus ATCC 29213, the “SA 29213” value was determined as 6.2.

As for `CC[C@H](C)[C@H](NC(=O)CNC(=O)[C@H](CCCNC(=N)N)NC(=O)[C@H](Cc1ccc(O)cc1)NC(=O)[C@H](CS)NC(=O)[C@@H](NC(=O)[C@H](CCCNC(=N)N)NC(=O)[C@H](Cc1ccccc1)NC(=O)[C@H](CS)NC(=O)[C@H](Cc1c[nH]c2ccccc12)NC(=O)[C@@H](N)CCCCN)C(C)C)C(=O)N[C@@H](CS)C(=O)N[C@@H](Cc1ccc(O)cc1)C(=O)N[C@@H](CCCNC(=N)N)C(=O)N[C@@H](CCCNC(=N)N)C(=O)N[C@@H](CS)C(=O)N[C@@H](CCCNC(=N)N)C(=O)N[C@@H](CC(=O)O)C(=O)O` [SEQ ID NO: 1, KWCFRVCYRGICYRRCRD] (H-KWCFRVCYRGICYRRCRD-OH; N-terminus and C-terminus assumed), the “times less toxic than SEQ ID NO: 13, beagle red blood cells” value in the data set on beagle red blood cells is on record as 2-4 times. Besides, the “times less toxic than SEQ ID NO: 13, human red blood cells” value in the data set with human red blood cells is reported as 2-4 times. For the same compound, in the data set with bovine red blood cells, the “difference in toxicity versus SEQ ID NO: 13, bovine red blood cells” value is “negligible”. Besides, the “times less toxic than SEQ ID NO: 13, rat red blood cells” value with rat red blood cells is 2-4 times. Further, the “difference in toxicity versus SEQ ID NO: 13, mouse red blood cells” value in the data set with mouse red blood cells is reported as “negligible”.
